Key:
[1] = Dynamic moisture-sorption (DMS) analysis; format: physicochemical
Protocol: Example 9: Dynamic Moisture-Sorption Analysis
A dynamic moisture-sorption (DMS) study was conducted using a dynamic moisture-sorption analyzer, VTI Corporation, SGA-100. The instrument was calibrated using polyvinyl pyrrolidone (PVP) and NaCl. Samples were prepared for DMS analysis by placing 5 mg to 20 mg of a sample in a tared sample holder. The sample was placed on the hang-down wire of the VTI balance. A drying step was run, typically at 40° C. and 0.5-1% RH for 1 h. The isotherm temperature is 25° C. Defined % RH holds typically ranged from 10% RH to 90% RH, with intervals of 10 to 20% RII. A % weight change smaller than 0.010% over 10 min, or up to 2 h, whichever occurred first, was required before continuing to the next % RH hold. The water content of the sample equilibrated as described above was determined at each % RH hold.

[2] = tested on: Paclitaxel-induced allodynia; assay: Paclitaxel-induced allodynia in Sprague Dawley rats (von Frey assay); format: in vivo
Protocol: Example 5: Paclitaxel-induced Allodynia in Sprague Dawley Rats
Therapy however is often associated with the unwanted side affects of painful peripheral neuropathy.
Male Sprague Dawley rats [200-250 g] (Harlan Laboratories Inc., Livermore, Calif.) were housed three per cage and maintained in a humidity-controlled (40-60%) and temperature-controlled (68-72° F.) facility on a 12 h:12 h light/dark cycle (lights on at 6:30 am) with free access to food (Harlan Teklad, Orange, Calif., Rodent Diet 8604) and water. Rats were allowed one week of habituation to the animal facility before starting treatment.
Rats were treated intraperitoneally, with 2 mg/kg of paclitaxel (Sigma Aldrich, Saint Louis, Mo.) in 10% Cremophor vehicle (500 μL) on days 0, 2, 4, and 6.
Tactile allodynia was tested using von Frey filaments. Briefly, the von Frey assay was performed using the standardized up down method with von Frey filaments, that determine the tactile sensitivity of the paw. By applying the increasingly or decreasingly thicker filaments to the paw in a logarithmic scale of actual force, a linear scale of perceived intensity is determined.
Eight days after the start of paclitaxel dosing, a baseline measurement (von Frey assay) was performed prior to dosing of compounds. […] As a positive control, rats were dosed intraperitoneally with 100 mg/kg gabapentin in water. […]

Row | Compound | Weight (% Change) ([1]; Sample RH […], elapsed time 46.6 min, 25.46) | Weight (% Change) ([1]; adsorption, Sample RH 29.94%, elapsed time 71.4 min) | Weight (% Change) ([1]; adsorption, Sample RH 49.86%, elapsed time 91.1 min) | Weight (% Change) ([1]; adsorption, Sample RH 69.77%, elapsed time 111.2 min) | Weight (% Change) ([1]; adsorption, Sample RH 79.70%, elapsed time 129.1 min) | Weight (% Change) ([1]; adsorption, Sample RH 89.72%, elapsed time 160.1 min) | DMS weight change ([1]; adsorption/desorption isotherm, from about 10% relative humidity (RH) to about 90% RH) | DMS weight change ([1]; after a 10% RH to 90% RH back to 10% RH cycle) | Weight (% Change) ([1]; desorption, Sample RH 10.06%, elapsed time 234.4 min) | Weight (% Change) ([1]; desorption, Sample RH 29.99%, elapsed time 218.6 min) | Weight (% Change) ([1]; desorption, Sample RH 50.07%, elapsed time 200.1 min) | Weight (% Change) ([1]; desorption, Sample RH 70.11%, elapsed time 180.1 min) | paw withdrawal threshold (PWT) ([2]; 10 mg/kg orally in PEG400, paclitaxel treated rats, von Frey assay 30, 60 and 180 minutes after dosing, in comparison with vehicle and gabapentin) | time of maximum efficacy post-dosing ([2]; 10 mg/kg orally, paclitaxel treated rats, von Frey assay time course) [h]
1 | CC(C)(C)[C@@H](CO)NC(=O)c1nn(-c2c[n+]([O-])ccn2)c2c1C[C@@H]1C[C@H]21 [Compound 699 (Anhydrous Form), (1aS,5aS)-2-(4-Oxy-pyrazin-2-yl)-1a,2,5,5a-tetrahydro-1H-2,3-diaza-cyclopropa[a]pentalene-4-carboxylic Acid ((S)-1-Hydroxymethyl-2,2-dimethyl-propyl)-amide] | 0 | 0.151 | 0.282 | 0.482 | 0.581 | 0.762 | 1.0% or less weight change from about 10% relative humidity | (RH) to about 90% RH; and about 0.1% or less weight change | 0.080 | 0.181 | 0.364 | 0.526 |  | 
2 | CC(C)(CO)NC(=O)c1nn(-c2ccc(F)cc2F)c2c1C[C@H]1C[C@@H]21 [Compound 493, (1aR,5aR)-2-(2,4-Difluoro-phenyl)-1a,2,5,5a-tetrahydro-1H-2,3-diaza-cyclopropa[a]pentalene-4-carboxylic Acid (2-Hydroxy-1,1-dimethyl-ethyl)-amide] |  |  |  |  |  |  |  |  |  |  |  |  | increase | 1

— patent US10632134B2, “Cannabinoid receptor modulators” (Arena Pharmaceuticals, Inc., priority 2011, dated 2020)
